Here are results for six molecules from US6933287B1, “Dramatic simplification of a method to treat neoplastic disease by radiation” (priority 1999, dated 2005).

Data set [1] deals with T1, thymidylate synthetase (Lacticaseibacillus casei, UniProt P00469). The following applies: read-out: Ki for the inhibition of thymidylate synthetase; cited from earlier work.
The subject of data set [2] is radiation induced fibrosarcoma, RIF-1. Conditions: toxic doses of CldC; cited from earlier work.
Data set [3] addresses T1, thymidylate synthetase. Conditions: cited from earlier work.
Data set [4] is described as follows: Half life of CldC with H4U in mice. The format is in vivo. Conditions: effect of H4U. The text has this:
(§1) Furthermore, CldC plus H4U was not toxic to dogs or monkeys. In monkeys and mice, H4U increased the half life of CldC. This is a very important indicator of the efficacy of CldC plus H4U in the treatment of diseases, in particular tumors in humans.

Data set [5] in a line: Half life of CldC with H4U in monkeys. The format is in vivo. The following applies: effect of H4U.
From the text: as §1

T1 sequence (P00469 whole entry): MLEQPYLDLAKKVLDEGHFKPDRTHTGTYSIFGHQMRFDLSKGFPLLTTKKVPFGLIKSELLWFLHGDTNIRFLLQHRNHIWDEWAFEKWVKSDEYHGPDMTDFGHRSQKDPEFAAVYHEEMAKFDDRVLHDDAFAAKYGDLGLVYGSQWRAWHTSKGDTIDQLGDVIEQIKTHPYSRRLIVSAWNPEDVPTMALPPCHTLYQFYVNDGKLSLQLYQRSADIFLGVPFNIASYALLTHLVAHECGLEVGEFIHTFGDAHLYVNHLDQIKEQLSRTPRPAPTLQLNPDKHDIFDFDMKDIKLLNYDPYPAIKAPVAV

By Ki is commonly meant the equilibrium dissociation constant of an inhibitor or competing ligand from its target. Regarding `O=c1[nH]c(=O)n([C@H]2C[C@H](O)[C@@H](COP(=O)(O)O)O2)cc1Br` [BrdUMP], on thymidylate synthetase [1], the Ki was 1400 nM.
For the molecule `Nc1nc(=O)n([C@H]2C[C@H](O)[C@@H](CO)O2)cc1Cl` [CldC, 5-chloro-2′-deoxycytidine], the dose enhancement ratio in data set [2] is on record as 1.6.
For the molecule `O=c1[nH]c(=O)n([C@H]2C[C@H](O)[C@@H](COP(=O)(O)O)O2)cc1Cl` [CldUMP], the “dehalogenation by thymidylate synthetase” value at thymidylate synthetase [3] was “not dehalogenated”. Also, at thymidylate synthetase [1], the Ki was 190 nM.
On to `O=c1[nH]c(=O)n([C@H]2C[C@H](O)[C@@H](COP(=O)(O)O)O2)cc1F` [FdUMP], for which, at thymidylate synthetase [1], the Ki is 15 nM.
Take `O=C1NC(O)CCN1[C@@H]1O[C@H](CO)[C@@H](O)[C@H]1O` (some centres unmarked) [H4U, tetrahydrouridine]: the “half life of CldC” value in data set [4] and in data set [5] was “increased” in each case.
Regarding `O=c1[nH]c(=O)n([C@H]2C[C@H](O)[C@@H](COP(=O)(O)O)O2)cc1I` [IdUMP], the Ki on thymidylate synthetase [1] was 1600 nM.
